The test system of assay [1] is A172. In words: Reactive oxygen species, H2DCFDA/DAPI staining, A172. Format: cell-based, human. The following applies: A172, 30 min of compound treatment. As to the method:
(§1) We performed double staining with DAPI, which stains nuclear genetic material (blue fluorescence), and H2DCFDA, an indicator of oxidative stress (green fluorescence). This study allowed us to evaluate the ability of MM118 and MM119 to activate reactive oxygen species (ROS) in A172 and U-87 MG glial cells.
(§2) The impact of the tested compounds on reactive oxygen species (ROS) production was assessed. Cells were seeded in 6-well culture plates at a density of 1 × 10^5 cells per well in 1 ml of medium. Following a 30-min treatment with the compounds, cells were washed with phosphate-buffered saline (PBS). Subsequently, double staining was performed using 20 µM 2′,7′-dichlorodihydrofluorescein diacetate (H2DCFDA) (obtained from Thermo Fisher Scientific, Eugene, OR, USA). This colourless reagent is hydrolysed by intracellular esterases and subsequently oxidised to the 2′,7′-dichlorofluorescein (DCF), and 10 µg/mL of 4′,6-diamidino-2-phenylindole (DAPI) (Sigma-Aldrich, St. Louis, MO, USA) was used to stain nuclear DNA. Fluorescence was observed using a Nikon ECLIPSE Ti fluorescence microscope (Nikon, Tokyo, Japan). ImageJ software (Bethesda, MD, USA) was used for data analysis, with DCF fluorescence intensity measured relative to the control. A minimum of 100 cells per sample were analysed.

The test system of assay [2] is U-87 MG. In words: Reactive oxygen species, H2DCFDA/DAPI staining, U-87 MG. Format: cell-based, human. The following applies: 30 min of compound treatment. As to the method: as §1, §2
Assay [3] relates to A172 xenografts. In words: Zebrafish xenograft, A172. The class given is in vivo. The following applies: 10 µM, 48 h, 0.1% DMSO control 4%. As to the method: (§3) In our study, we used wild-type AB zebrafish embryos obtained from the certified Experimental Medicine Centre (Lublin, Poland). Adult zebrafish were raised at 28.5 °C under 14 h of light and 10 h of the dark cycle and fed in accordance with the guidelines established by the Research Animals Department of the RSPCA. Fertilised eggs were obtained by natural spawning; healthy clutches were processed for study or propagated for line maintenance. Embryos were maintained in the E3 medium (5 mM NaCl, 0.33 mM MgCl2, 0.33 mM CaCl2, 0.17 mM KCl; pH 7.2) at 28.5 °C. The use of animals in scientific research in Europe is governed by the Directive 2010/63/EU of 22 September 2010. […] All procedures in this study were performed on embryos up to 5 dpf.
(§4) A172 and U-87MG cell lines were labelled with Vybrant Did (Invitrogen, Waltham, MA, USA) according to the manufacturer’s protocol. Stained cells were re-suspended in Dulbecco’s modified Eagle’s medium (DMEM) at the final concentration of 1 × 10^7 cells/mL. 24 h post-fertilisation (hpf) zebrafish were manually dechorionated. […]
(§5) Xenograft imaging has been performed before (48 hpf) and after (120 hpf) drugs treatment using an EVOS M5000 Imaging System with the filter Cy5 (excitation: 628 nm; emission: 692 nm). […] Tumour sizes were analysed as the area of labelled tumour cells according Ali et al.[18] using EVOS software.

The subject of assay [4] is U-87MG xenografts. In words: Zebrafish xenograft, U-87 MG. Format: in vivo. Conditions: U-87 MG zebrafish xenografts, 10 µM, 48 h; 0.1% DMSO control 22%. As to the method:
as §3, §4, §5

As for `CCC(CO)NS(=O)(=O)c1ccc(-n2nc(C)c3nc4nnnn4nc32)cc1` (stereo in doubt) [MM118, N-(R)-(1-hydroxy-but-2-yl)-4-[7-methyl-5H-pyrazolo[4,3-e]tetrazolo[1,5-b][1]^,[2]^,[4]triazin-5-yl)]benzenesulfonamide], the “ROS, mean green (DCF) fluorescence” value in assay [1] is recorded as “increase in mean green fluorescence”; in assay [2], “effectively induce oxidative stress”. Also, the “average tumour size reduction” value in assay [3] is 55%. In addition, the tumour size reduction in assay [4] amounted to 51%.
On to `CCC(CO)NS(=O)(=O)c1ccc(-n2nc(C)c3nc4nnnn4nc32)cc1` (stereo in doubt) [MM119, N-(S)-(1-hydroxy-but-2-yl)-4-[7-methyl-5H-pyrazolo[4,3-e]tetrazolo[1,5-b][1]^,[2]^,[4]triazin-5-yl)]benzenesulfonamide], for which the “ROS, mean green (DCF) fluorescence” value was “increase in mean green fluorescence” in assay [1] and “effectively induce oxidative stress” in assay [2]. Further, in assay [3], the “average tumour size reduction” value was found to be 56%. Besides, in assay [4], the tumour size reduction was 56%.

For the origin of these results see PMC12679848, “Sulphonamide derivatives with a triazine core as novel inducers of apoptosis and pyroptosis in glioblastoma multiforme cells” (Journal of Enzyme Inhibition and Medicinal Chemistry, 2025).
